Source: EP0810221A1 (MITSUBISHI CHEMICAL CORPORATION, priority 1995, dated 1996)

Assays:
[1] = target: T1, m-Calpain (Rattus norvegicus, UniProt Q07009); assay: Inhibitory activity against calpain (m-Calpain purified from brains of rats); type: biochemical
T1 construct: m-Calpain was purified from brains of rats; from tissue; host or cells: rat brain
T1 sequence (Q07009 20-700 limits assumed): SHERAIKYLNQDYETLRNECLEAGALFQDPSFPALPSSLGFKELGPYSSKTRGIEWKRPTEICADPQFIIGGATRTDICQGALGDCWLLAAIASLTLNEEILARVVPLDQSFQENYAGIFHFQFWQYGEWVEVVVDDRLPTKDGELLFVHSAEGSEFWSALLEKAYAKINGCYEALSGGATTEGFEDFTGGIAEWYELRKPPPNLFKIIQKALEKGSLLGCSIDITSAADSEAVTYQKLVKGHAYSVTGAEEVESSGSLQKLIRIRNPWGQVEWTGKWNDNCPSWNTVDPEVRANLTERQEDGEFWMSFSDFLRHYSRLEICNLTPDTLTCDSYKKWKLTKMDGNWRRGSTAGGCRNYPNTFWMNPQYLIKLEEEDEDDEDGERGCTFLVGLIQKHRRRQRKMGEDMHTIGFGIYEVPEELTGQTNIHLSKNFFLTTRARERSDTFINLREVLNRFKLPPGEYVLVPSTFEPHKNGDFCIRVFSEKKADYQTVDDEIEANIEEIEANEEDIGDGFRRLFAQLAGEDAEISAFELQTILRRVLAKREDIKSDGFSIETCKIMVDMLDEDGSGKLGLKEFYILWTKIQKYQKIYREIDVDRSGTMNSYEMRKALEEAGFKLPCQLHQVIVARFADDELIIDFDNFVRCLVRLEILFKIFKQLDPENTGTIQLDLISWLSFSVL
T1 sequence (Q64537 1-270 partner): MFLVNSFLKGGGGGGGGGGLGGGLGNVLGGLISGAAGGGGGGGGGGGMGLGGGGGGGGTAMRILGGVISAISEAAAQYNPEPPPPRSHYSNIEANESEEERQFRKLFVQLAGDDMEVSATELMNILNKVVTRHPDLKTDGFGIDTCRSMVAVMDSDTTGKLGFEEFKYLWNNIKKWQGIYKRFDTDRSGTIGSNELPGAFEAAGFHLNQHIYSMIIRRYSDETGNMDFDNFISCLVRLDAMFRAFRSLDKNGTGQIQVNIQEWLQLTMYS
Procedure: m-Calpain was purified from brains of rats according to a method described in a literature (Journal of Biological Chemistry, Vol. 259, p. 3210, 1984), and the inhibitory activity was determined in a manner according to a published method (Journal of Biological Chemistry, Vol. 259, p. 12489, 1984).

[2] = target: T2, cathepsin B (Sigma, C-6286) (Bos taurus, UniProt P07688); assay: Inhibitory activity against cathepsin B; type: biochemical; conditions: Inhibitory activity against cathepsin B (Table-5)
T2 construct: purchased Sigma C-6286
Procedure: Inhibitory activity against cathepsin B (Sigma, C-6286) was determined according to a method described in a literature (Biochemical Journal, Vol. 201, p. 189, 1982).

[3] = Inhibitory activity against calpain (Table-6)
[4] = Inhibitory activity against calpain (continuation of Table-6)

SMILES	IC50 [1, 3] [nM]	IC50 [2] [nM]	IC50 [1, 4] [nM]
CC(C)C[C@H](NS(=O)(=O)c1ccccc1)C(=O)N[C@H]1CCOC1O (stereo partly drawn) [Example 1, (3S)-3-((S)-4-methyl-2-phenylsulfonylaminovalerylamino)-2-tetrahydrofuranol]	620	420	
CCC[C@H](NC(=O)OCc1ccccc1)C(=O)N[C@H]1CCOC1O (stereo partly drawn) [Example 4, (3S)-3-((S)-2-benzyloxycarbonylaminovalerylamino)-2-tetrahydrofuranol]	900	700	
CC(C)[C@H](NC(=O)OCc1ccccc1)C(=O)NC1CCOC1O (stereo partly drawn) [Example 5, 3-((S)-2-benzyloxycarbonylamino-3-methylbutyrylamino)-2-tetrahydrofuranol]	2300	980	
CCCC[C@H](NC(=O)OCc1ccccc1)C(=O)N[C@H]1CCOC1O (stereo partly drawn) [Example 6, (3S)-3-((S)-2-benzyloxycarbonylaminohexanoylamino)-2-tetrahydrofuranol]	2300	1350	
CCC(C)[C@H](NC(=O)OCc1ccccc1)C(=O)N[C@H]1CCOC1O (stereo partly drawn) [Example 7, (3S)-3-((2S)-2-benzyloxycarbonylamino-3-methylvalerylamino)-2-tetrahydrofuranol]	2400	900	
COC(=O)N[C@@H](CC(C)C)C(=O)NC1CCOC1O (stereo partly drawn) [Example 9, 3-((S)-2-methoxycarbonylamino-4-methylvalerylamino)-2-tetrahydrofuranol]	1550		
CC(C)C[C@H](NC(=O)OC(C)(C)C)C(=O)N[C@H]1CCOC1O (stereo partly drawn) [Example 10, (3S)-3-((S)-2-tert-butoxycarbonylamino-4-methylvalerylamino)-2-tetrahydrofuranol]	960	370	
CC(C)COC(=O)N[C@@H](CC(C)C)C(=O)N[C@H]1CCOC1O (stereo partly drawn) [Example 11, (3S)-3-((S)-2-isobutoxycarbonylamino-4-methylvalerylamino)-2-tetrahydrofuranol]	1100	2150	
CC(C)C[C@H](NC(=O)OCC1CCCCC1)C(=O)N[C@H]1CCOC1O (stereo partly drawn) [Example 12, (3S)-3-((S)-2-cyclohexylmethoxycarbonylamino-4-methylvalerylamino)-2-tetrahydrofuranol]	650	1200	
CC(C)C[C@H](NC(=O)OCc1ccccc1)C(=O)N[C@H]1CCOC1O (stereo partly drawn) [Example 13, (3S)-3-((S)-2-benzyloxycarbonylamino-4-methylvalerylamino)-2-tetrahydrofuranol]	660	380	
CC(C)C[C@H](NC(=O)OCc1ccc(F)cc1)C(=O)N[C@H]1CCOC1O (stereo partly drawn) [Example 15, (3S)-3-{(S)-2-(4-fluorobenzyloxycarbonylamino)-4-methylvalerylamino}-2-tetrahydrofuranol]	680	700	
CC(C)C[C@H](NC(=O)OCc1ccccc1Cl)C(=O)N[C@H]1CCOC1O (stereo partly drawn) [Example 16, (3S)-3-{(S)-2-(2-chlorobenzyloxycarbonylamino)-4-methylvalerylamino}-2-tetrahydrofuranol]	340	1000	
CC(C)C[C@H](NC(=O)OCC1c2ccccc2-c2ccccc21)C(=O)N[C@H]1CCOC1O (stereo partly drawn) [Example 22, (3S)-3-{(S)-2-(9-fluorenylmethoxycarbonylamino)-4-methylvalerylamino}-2-tetrahydrofuranol]	410		
CC(C)C[C@H](NC(=O)OCC1CCCO1)C(=O)N[C@H]1CCOC1O (stereo partly drawn) [Example 23, (3S)-3-((S)-4-methyl-2-tetrahydrofurfuryloxycarbonylaminovalerylamino)-2-tetrahydrofuranol]	1100		
CC(C)C[C@H](NC(=O)OCc1cccc[n+]1[O-])C(=O)NC1CCOC1O (stereo partly drawn) [Example 26, 3-{(S)-4-methyl-2-(2-pyridylmethoxycarbonylamino)valerylamino)-2-tetrahydrofuranol N-oxide]	1400		
CC(C)C[C@H](NC(=O)c1ccccc1F)C(=O)N[C@H]1CCOC1O (stereo partly drawn) [Example 40, (3S)-3-{(S)-2-(2-fluorobenzoylamino)-4-metylvalerylamino}-2-tetrahydrofuranol]		1000	
Cc1ccc(C(=O)N[C@@H](CC(C)C)C(=O)N[C@H]2CCOC2O)cc1 (stereo partly drawn) [Example 46, (3S)-3-{(S)-4-methyl-2-(4-methylbenzoylamino)valerylamino}-2-tetrahydorofuranol]		270	

SMILES	IC50 [1, 3] [nM]	IC50 [2] [nM]	IC50 [1, 4] [nM]
Cc1cccc(C)c1C(=O)N[C@@H](CC(C)C)C(=O)N[C@H]1CCOC1O (stereo partly drawn) [Example 47, (3S)-3-{(S)-2-(2,6-dimethylbenzoylamino)-4-methylvalerylamino)-2-tetrahydrofuranol]	2300		
Cc1cc(C)c(C(=O)N[C@@H](CC(C)C)C(=O)N[C@H]2CCOC2O)c(C)c1 (stereo partly drawn) [Example 49, (3S)-3-{(S)-4-methyl-2-(2,4,6-trimethylbenzoylamino)valerylamino}-2-tetrahydrofuranol]	680		
COc1ccccc1C(=O)N[C@@H](CC(C)C)C(=O)N[C@H]1CCOC1O (stereo partly drawn) [Example 52, (3S)-3-{(S)-2-(2-methoxybenzoylamino)-4-methylvalerylamino)-2-tetrahydrofuranol]	340		
COc1ccc(C(=O)N[C@@H](CC(C)C)C(=O)N[C@H]2CCOC2O)c(OC)c1 (stereo partly drawn) [Example 54, (3S)-3-{(S)-2-(2,4-dimethoxybenzoylamino)-4-methylvalerylamino}-2-tetrahydrofuranol]	700		
CC(C)C[C@H](NC(=O)C1CCc2ccccc2O1)C(=O)N[C@H]1CCOC1O (some centres unmarked) [Example 63]			350
CC(C)C[C@H](NS(=O)(=O)c1ccc(F)cc1)C(=O)N[C@H]1CCOC1O (stereo partly drawn) [Example 66, (3S)-3-{(S)-2-(4-fluorophenylsulfonylamino)-4-methylvalerylamino}-2-tetrahydrofuranol]			600
CC(C)C[C@H](NS(=O)(=O)c1ccc(Cl)cc1)C(=O)N[C@H]1CCOC1O (stereo partly drawn) [Example 68, (3S)-3-{(S)-2-(4-chlorophenylsulfonylamino)-4-methylvalerylamino}-2-tetrahydrofuranol]			560
CC(C)C[C@H](NS(=O)(=O)c1ccc(Br)cc1)C(=O)N[C@H]1CCOC1O (stereo partly drawn) [Example 69, (3S)-3-{(S)-2-(4-bromophenylsulfonylamino)-4-methylvalerylamino}-2-tetrahydrofuranol]			620
Cc1ccc(S(=O)(=O)N[C@@H](CC(C)C)C(=O)N[C@H]2CCOC2O)cc1 (stereo partly drawn) [Example 70, (3S)-3-{(S)-4-methyl-2-(4-methylphenylsulfonylamino)valerylamino}-2-tetrahydrofuranol]			500
Cc1cc(C)c(S(=O)(=O)N[C@@H](CC(C)C)C(=O)N[C@H]2CCOC2O)c(C)c1 (stereo partly drawn) [Example 71, (3S)-3-{(S)-4-methyl-2-(2,4,6-trimethylphenylsulfonylamino)valerylamino}-2-tetrahydrofuranol]			450
CC(C)C[C@H](NS(=O)(=O)c1ccc(C(C)(C)C)cc1)C(=O)N[C@H]1CCOC1O (stereo partly drawn) [Example 72, (3S)-3-{(S)-2-(4-tert-butylphenylsulfonylamino)-4-methylvalerylamino}-2-tetrahydrofuranol]			390
COc1ccc(S(=O)(=O)N[C@@H](CC(C)C)C(=O)N[C@H]2CCOC2O)cc1 (stereo partly drawn) [Example 73, (3S)-3-{(S)-2-(4-methoxyphenylsulfonylamino)-4-methylvalerylamino}-2-tetrahydrofuranol]			740
CC(C)C[C@H](NS(=O)(=O)c1cccc([N+](=O)[O-])c1)C(=O)N[C@H]1CCOC1O (stereo partly drawn) [Example 74, (3S)-3-{(S)-4-methyl-2-(3-nitrophenylsulfonylamino)valerylamino}-2-tetrahydrofuranol]			950
O=C(N[C@@H](Cc1ccccc1)C(=O)N[C@H]1CCOC1O)OCc1ccccc1 (stereo partly drawn) [Example 78, (3S)-3-((S)-2-benzyloxycarbonylamino-3-phenylpropionylamino)-2-tetrahydrofuranol]		300	
CC(C)C[C@H](NS(=O)(=O)c1ccccc1)C(=O)N[C@H]1C(C)COC1O (stereo partly drawn) [Example 80, (3S)-4-methyl-3-((S)-4-methyl-2-phenylsulfonylaminovalerylamino)-2-tetrahydrofuranol]			2800
CC(C)C[C@H](NC(=O)OCc1ccccc1)C(=O)N[C@H]1CCCOC1O (some centres unmarked) [Example 81]			1550
